The values below come from publication PMC9696366, “Flavones, Flavonols, Lignans, and Caffeic Acid Derivatives from Dracocephalum moldavica and Their In Vitro Effects on Multiple Myeloma and Acute Myeloid Leukemia” (International Journal of Molecular Sciences, 2022).

Each structure is given as a SMILES string.

Format in all cases: cell-based
In series [1] the test system is Molm-13 cells. Put plainly: Apoptosis measurement (AnnexinV/PI staining) on AML cells. Conditions: for EC50 / viability at 12.5 µM / viability at 25 µM / viability at 50 µM: Homo sapiens; for EC50: MOLM-13, 48 h, best-fit model; for viability at 12.5 µM: Molm-13, 12.5 µM; for viability at 12.5 µM / viability at 25 µM / viability at 50 µM: 48 h, read-out: % Alive (cells alive of control); for viability at 25 µM: Molm-13, 25 µM; for viability at 50 µM: Molm-13, 50 µM; for Cytotoxic effect / induction of apoptosis (in words): Molm-13, 12.5-50 µM. Here is the method: (§1) Cytotoxicity was measured as induction of apoptosis in myeloma cell line KMS-12-PE and AML cell line Molm-13, staining the cells with AnnexinV-fluorescein isothiocyanate (AnnexinV-FITC) and propidium iodide (PI). Cell lines were purchased from DSMZ (Braunschweig, Germany) and routinely fingerprinted and tested for mycoplasma negativity. All cell lines were grown in RPMI-1640 medium (Life Technologies, Paisley, UK), and supplemented with 10% fetal calf serum (FCS; PAA, Linz, Austria), L-glutamine 100 µg/mL, and penicillin-streptomycin 100 U/mL. Compounds were dissolved in DMSO at a stock concentration of 50 mM and stored at −20 °C. Briefly, 0.5 × 10^6 cancer cells/mL were incubated for 24 h and 48 h with or without the tested compounds at indicated concentrations. Analyses were performed in duplicates and a solvent control was included. The extent of non-apoptotic cells (AnnexinV/propidium iodide negativity) was calculated as the percentage of viable cells in respect to the untreated control. Data are shown as the mean percentage of viable cells +/− standard deviation (SD) (error bars).

For series [2], the system named is KMS-12-PE cells. The series can be described thus: Apoptosis measurement (AnnexinV/PI staining) on myeloma cells. Particulars: for Cytotoxic effect / induction of apoptosis (in words): 12.5-50 µM; for viability at 12.5 µM / viability at 25 µM / viability at 50 µM / EC50: 48 h; for viability at 12.5 µM / viability at 25 µM / viability at 50 µM: read-out: % Alive (cells alive of control); for EC50: best-fit model. The method, then:
as §1

For series [3], the system named is Molm-13 cells. The series can be described thus: Proliferation, modified MTT assay (EZ4U) on AML cells. Conditions: Molm-13, 2.5 µM, 48 h, positive control. The method, then:
Proliferation was measured using a modified MTT assay (EZ4U kit, Biomedica, Vienna, Austria) according to the manufacturer’s instructions. In brief, 2.5 × 10^4 (Molm-13)—5.0 × 10^4 cells (KMS-12-PE cells) were seeded in 96-well plates and substances were added as indicated. Different concentrations are due to the different doubling time of the cells (24 h vs. 48 h). Cells were incubated for 48 h and during the last 7 h of incubation, 3-(4,5-dimethylthiazol-2-yl)-2,5-diphenyltetrazolium bromide was added as a substrate. Reduction of the tetrazolium salt to formazan by the mitochondrial activity of the growing cells was measured as optical density at 492 nm (with 620 nm as reference) on a plate reader. Proliferation (mean +/− SD) was calculated as the percentage of control (without substances). Concentrations used were 10 µM/5 µM/2.5 µM for all substances. Gilteritinib was used as a positive control at 2.5 µM.

One may read the EC50 as the concentration that produces a half-maximal response. Higher therefore signals a need for much substance. With `COc1ccc(-c2cc(=O)c3c(O)c(OC)c(OC)cc3o2)cc1OC` [Compound 2, 5-desmethylsinensetin], in series [1], the EC50 was > 50 µM, the viability at 12.5 µM turned out to be 91.1 ± 3.4%, the viability at 25 µM turned out to be 90.9 ± 0.4% and the viability at 50 µM came out at 88.6 ± 1.8%. Further, the “Cytotoxic effect / induction of apoptosis (in words)” value (from here on “Cytotoxic effect / induction”) in series [1] is reported as “no effects”. Also, the “Cytotoxic effect / induction” value in series [2] is “no effects”. In series [2] (Homo sapiens), the viability at 12.5 µM is 94.6 ± 10.2%, the viability at 25 µM was 93.4 ± 9.3%, the viability at 50 µM worked out at 93.1 ± 10.2% and the EC50 was > 50 µM.

As for `O=c1cc(-c2ccc(O)cc2)oc2cc(O)cc(O)c12` [Compound 4, apigenin], in series [1], the EC50 was > 50 µM, the viability at 12.5 µM was determined as 98 ± 1.6%, the viability at 25 µM came to 89.5 ± 3.9% and the viability at 50 µM turned out to be 58.4 ± 14.2%. In series [2] (Homo sapiens), the viability at 12.5 µM worked out at 85.5 ± 10.6%, the viability at 25 µM is 69.4 ± 31.3%, the viability at 50 µM came out at 59.6 ± 16.1% and the EC50 is > 50 µM.

Turning to `O=c1cc(-c2ccc(O)c(O)c2)oc2cc(O)cc(O)c12` [Compound 5, luteolin], in series [1], the EC50 was found to be 42.3 µM, the viability at 12.5 µM came out at 86.5 ± 5.2%, the viability at 25 µM came out at 72.4 ± 4% and the viability at 50 µM was found to be 30.2 ± 13.7%. In addition, in series [2] (Homo sapiens), the viability at 12.5 µM stood at 80.3 ± 5.4%, the viability at 25 µM stood at 70.5 ± 5.6%, the viability at 50 µM came out at 50.3 ± 18.4% and the EC50 was > 50 µM.

Consider `COc1ccc(-c2cc(=O)c3c(O)cc(O)cc3o2)cc1O` [Compound 6, diosmetin], for which, in series [1], the EC50 is > 50 µM, the viability at 12.5 µM was determined as 91.5 ± 2.8%, the viability at 25 µM turned out to be 76.2 ± 6.7% and the viability at 50 µM amounted to 39.8 ± 5.8%. The EC50 in series [2] was found to be 25.7 µM. Further, in series [2] (Homo sapiens), the viability at 12.5 µM amounted to 77.3 ± 6.9%, the viability at 25 µM amounted to 44.2 ± 19%, the viability at 50 µM was determined as 31.1 ± 5.3% and the EC50 worked out at 26 µM.

As to `O=c1c(O)c(-c2ccc(O)cc2)oc2cc(O)cc(O)c12` [Compound 7, kaempferol], in series [1], the EC50 was > 50 µM, the viability at 12.5 µM amounted to 93.1 ± 5.1%, the viability at 25 µM amounted to 83.1 ± 5.7% and the viability at 50 µM was 50.2 ± 11.4%. Also, in series [1], the “Cytotoxic effect / induction” value is on record as “induced apoptosis”. For the same compound, in series [2], the “Cytotoxic effect / induction” value is listed as “induced apoptosis”. Further, in series [2] (Homo sapiens), the viability at 12.5 µM stood at 98 ± 2.7%, the viability at 25 µM was found to be 91.2 ± 15%, the viability at 50 µM worked out at 76.3 ± 17.3% and the EC50 was > 50 µM.

On to `O=c1c(O)c(-c2ccc(O)c(O)c2)oc2cc(O)cc(O)c12` [Compound 8, quercetin], for which, in series [1], the EC50 was > 50 µM, the viability at 12.5 µM amounted to 100 ± 2.2%, the viability at 25 µM is 94.4 ± 3.9% and the viability at 50 µM is 79.8 ± 10.2%. Also, the “Cytotoxic effect / induction” value in series [1] is “induced apoptosis”. For the same compound, in series [2], the “Cytotoxic effect / induction” value was “induced apoptosis”. In series [2] (Homo sapiens), the viability at 12.5 µM was found to be 96.6 ± 2.7%, the viability at 25 µM was 79 ± 4.8%, the viability at 50 µM stood at 43.7 ± 8.3% and the EC50 is > 50 µM.

With `COc1cc([C@H]2OC[C@H]3[C@@H]2CO[C@@H]3c2ccc3c(c2)OCO3)ccc1O` [Compound 9, (+)-piperitol], in series [1], the EC50 was > 50 µM, the viability at 12.5 µM amounted to 102 ± 1.3%, the viability at 25 µM worked out at 100 ± 2.1% and the viability at 50 µM came to 97.5 ± 2.4%. In series [2] (Homo sapiens), the viability at 12.5 µM amounted to 102.8 ± 0.8%, the viability at 25 µM stood at 100.1 ± 0.8%, the viability at 50 µM was 97.1 ± 4.1% and the EC50 is > 50 µM.

As for `O[C@@H]1O[C@H](c2ccc3c(c2)OCO3)[C@H]2CO[C@H](c3ccc4c(c3)OCO4)[C@H]21` [Compound 10, (+)-9α-hydroxysesamin], in series [1], the EC50 was > 50 µM, the viability at 12.5 µM was 101 ± 1.4%, the viability at 25 µM is 100 ± 2% and the viability at 50 µM worked out at 98.7 ± 1.7%. Moreover, in series [2] (Homo sapiens), the viability at 12.5 µM is 99 ± 0.6%, the viability at 25 µM was found to be 96.7 ± 0.5%, the viability at 50 µM amounted to 89.4 ± 0.8% and the EC50 is > 50 µM.

Turning to `O=C(O)/C=C/c1ccc(O)c(O)c1` [Compound 11, caffeic acid], in series [1], the EC50 was > 50 µM, the viability at 12.5 µM is 96.9 ± 4.6%, the viability at 25 µM worked out at 98.1 ± 3.8% and the viability at 50 µM was determined as 98.8 ± 2.8%. Besides, in series [2] (Homo sapiens), the viability at 12.5 µM turned out to be 102 ± 1.8%, the viability at 25 µM came to 102.5 ± 0.9%, the viability at 50 µM turned out to be 102.6 ± 0.5% and the EC50 is > 50 µM.

For `O=C(/C=C/c1ccc(O)c(O)c1)O[C@H](Cc1ccc(O)c(O)c1)C(=O)O` [Compound 12, (R)-(+)-rosmarinic acid], in series [1], the EC50 is > 50 µM, the viability at 12.5 µM is 97.6 ± 3.2%, the viability at 25 µM was 98.5 ± 3.6% and the viability at 50 µM amounted to 100.8 ± 0.6%. Moreover, in series [2] (Homo sapiens), the viability at 12.5 µM worked out at 100.2 ± 0.9%, the viability at 25 µM worked out at 102 ± 1.5%, the viability at 50 µM worked out at 98.2 ± 1.5% and the EC50 is > 50 µM.

Consider `COc1cc(/C=C/C(=O)O[C@H](Cc2ccc(O)c(O)c2)C(=O)O)ccc1O` [Compound 13, (R)-(+)-3′-O-methylrosmarinic acid], for which, in series [1], the EC50 is > 50 µM, the viability at 12.5 µM stood at 99.6 ± 2.6%, the viability at 25 µM was determined as 99.4 ± 1.9% and the viability at 50 µM came to 97.8 ± 4%. In addition, in series [2] (Homo sapiens), the viability at 12.5 µM is 102 ± 1.6%, the viability at 25 µM came out at 101 ± 1.8%, the viability at 50 µM was 101 ± 3.4% and the EC50 is > 50 µM.

With `CCc1nc(C(N)=O)c(Nc2ccc(N3CCC(N4CCN(C)CC4)CC3)c(OC)c2)nc1NC1CCOCC1` [gilteritinib, reference compound], in series [3], the “Effect on proliferation (in words)” value is on record as “high effect”.
